From ChEMBL document CHEMBL5465560, “Selectivity Literature for EUbOPEN Chemogenomic Library” (2024)
pIC50: −log10 of the molar value. Blank lines part the entries; values can stand above or below the molecule they belong to.

What was measured:
[1] = target: Ribosomal protein S6 kinase alpha-5 (Homo sapiens) (UniProt O75582); settings: at 10 µM
[2] = target: Calcium/calmodulin-dependent protein kinase type II subunit gamma (Homo sapiens) (UniProt Q13555); assay: Selectivity interaction (Ambit KINOMEscan and KiNATiv profiling in Jurkat cells) EUB0000090b CAMK2G; format: cell-based; settings: at 1 µM
[3] = target: T1, Serine/threonine-protein kinase 17A (Homo sapiens) (UniProt Q9UEE5); assay: Selectivity interaction (Ambit KINOMEscan and KiNATiv profiling in Jurkat cells) EUB0000090b STK17A; format: cell-based; settings: at 1 µM
T1 sequence (whole entry): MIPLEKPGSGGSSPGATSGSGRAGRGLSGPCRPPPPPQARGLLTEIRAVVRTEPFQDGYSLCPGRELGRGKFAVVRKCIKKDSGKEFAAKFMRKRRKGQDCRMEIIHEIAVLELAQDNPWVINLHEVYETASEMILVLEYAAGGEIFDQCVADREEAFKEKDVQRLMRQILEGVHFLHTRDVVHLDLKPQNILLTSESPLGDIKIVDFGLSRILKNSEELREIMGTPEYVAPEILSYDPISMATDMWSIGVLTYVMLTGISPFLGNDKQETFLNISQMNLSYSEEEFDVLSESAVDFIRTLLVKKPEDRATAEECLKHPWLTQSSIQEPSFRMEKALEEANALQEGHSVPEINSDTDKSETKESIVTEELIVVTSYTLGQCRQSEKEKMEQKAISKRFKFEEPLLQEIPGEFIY

[4] = target: T2, Serine/threonine-protein kinase DCLK1 (Homo sapiens) (UniProt O15075); assay: Selectivity interaction (Kinase panel (DSF assay)) EUB0001559a DCLK1
T2 sequence (whole entry): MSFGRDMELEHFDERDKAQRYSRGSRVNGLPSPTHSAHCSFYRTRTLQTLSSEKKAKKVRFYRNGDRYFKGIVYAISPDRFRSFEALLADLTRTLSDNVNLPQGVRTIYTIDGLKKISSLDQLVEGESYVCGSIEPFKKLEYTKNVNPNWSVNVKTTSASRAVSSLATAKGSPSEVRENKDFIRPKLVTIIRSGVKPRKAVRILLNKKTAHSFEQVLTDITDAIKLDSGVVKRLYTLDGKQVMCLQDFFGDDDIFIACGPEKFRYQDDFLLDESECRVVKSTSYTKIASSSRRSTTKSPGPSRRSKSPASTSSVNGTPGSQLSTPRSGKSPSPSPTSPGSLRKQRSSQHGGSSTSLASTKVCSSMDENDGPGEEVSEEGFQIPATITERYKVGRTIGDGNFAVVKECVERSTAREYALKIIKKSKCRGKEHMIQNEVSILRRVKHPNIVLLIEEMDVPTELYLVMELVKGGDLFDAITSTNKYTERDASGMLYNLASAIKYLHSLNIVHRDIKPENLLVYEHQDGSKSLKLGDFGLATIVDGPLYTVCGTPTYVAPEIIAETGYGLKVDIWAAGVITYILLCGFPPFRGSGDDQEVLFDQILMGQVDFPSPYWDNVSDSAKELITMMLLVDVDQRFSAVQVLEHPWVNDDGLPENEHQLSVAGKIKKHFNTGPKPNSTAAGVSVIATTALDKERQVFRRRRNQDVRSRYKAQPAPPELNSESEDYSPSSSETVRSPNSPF

[5] = target: Vascular endothelial growth factor receptor 2 (Homo sapiens, UniProt P35968); assay: Selectivity interaction (SelectScreen profiling (Invitrogen)) EUB0000607a KDR; settings: at 2 µM
[6] = target: Serine/threonine-protein kinase 26 (Homo sapiens, UniProt Q9P289); assay: Selectivity interaction (KinomeScan (DiscoverX)) EUB0000595a STK26; settings: at 10 µM
[7] = target: T3, Serine/threonine-protein kinase Nek11 (Homo sapiens) (UniProt Q8NG66); settings: at 10 µM
T3 sequence (whole entry): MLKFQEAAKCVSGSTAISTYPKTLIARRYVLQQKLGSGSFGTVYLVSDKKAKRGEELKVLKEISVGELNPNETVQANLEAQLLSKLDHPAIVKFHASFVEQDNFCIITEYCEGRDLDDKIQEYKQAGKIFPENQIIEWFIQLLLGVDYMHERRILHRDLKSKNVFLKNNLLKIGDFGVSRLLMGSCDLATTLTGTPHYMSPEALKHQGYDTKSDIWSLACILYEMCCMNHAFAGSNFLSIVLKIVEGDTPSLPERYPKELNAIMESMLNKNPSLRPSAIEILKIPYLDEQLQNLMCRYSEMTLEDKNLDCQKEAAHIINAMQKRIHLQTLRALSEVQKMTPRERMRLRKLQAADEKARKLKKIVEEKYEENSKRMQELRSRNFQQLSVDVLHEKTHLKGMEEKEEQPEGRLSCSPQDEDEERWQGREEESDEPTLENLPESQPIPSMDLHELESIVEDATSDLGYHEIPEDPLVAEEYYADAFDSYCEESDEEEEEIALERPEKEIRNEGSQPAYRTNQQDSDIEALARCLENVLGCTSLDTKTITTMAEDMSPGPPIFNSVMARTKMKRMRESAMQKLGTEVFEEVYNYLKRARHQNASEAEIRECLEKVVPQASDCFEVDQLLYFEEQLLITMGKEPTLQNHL

[8] = target: T4, G protein-coupled receptor kinase 3 (Homo sapiens) (UniProt P35626); assay: Selectivity interaction (ProQinase) EUB0000171b ADRBK2
T4 sequence (whole entry): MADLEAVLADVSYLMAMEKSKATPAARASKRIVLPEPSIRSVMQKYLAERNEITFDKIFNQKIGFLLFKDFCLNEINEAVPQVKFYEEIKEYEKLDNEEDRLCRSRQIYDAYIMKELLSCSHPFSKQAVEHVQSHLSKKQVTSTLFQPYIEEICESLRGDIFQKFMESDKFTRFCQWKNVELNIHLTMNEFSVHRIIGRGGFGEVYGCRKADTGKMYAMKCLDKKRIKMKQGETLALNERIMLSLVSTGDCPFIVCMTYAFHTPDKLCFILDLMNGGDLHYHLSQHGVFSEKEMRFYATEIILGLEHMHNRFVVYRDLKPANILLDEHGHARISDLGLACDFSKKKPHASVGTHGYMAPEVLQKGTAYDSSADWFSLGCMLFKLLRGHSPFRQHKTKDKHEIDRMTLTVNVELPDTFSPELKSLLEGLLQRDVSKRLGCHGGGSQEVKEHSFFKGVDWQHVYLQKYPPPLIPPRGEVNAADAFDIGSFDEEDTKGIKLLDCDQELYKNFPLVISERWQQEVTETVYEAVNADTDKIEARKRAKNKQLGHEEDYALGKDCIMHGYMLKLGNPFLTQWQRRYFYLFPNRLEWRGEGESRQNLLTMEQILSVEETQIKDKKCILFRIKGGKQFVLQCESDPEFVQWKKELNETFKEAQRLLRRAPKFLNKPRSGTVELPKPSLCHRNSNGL

[9] = target: 5-hydroxytryptamine receptor 2A (Homo sapiens, UniProt P28223); assay: Selectivity interaction (Serotonin 5HT2A Calcium flux assay, agonist and antagonist mode ) EUB0000877a HTR2A
5-hydroxytryptamine receptor 2A, sequence (P28223 whole entry): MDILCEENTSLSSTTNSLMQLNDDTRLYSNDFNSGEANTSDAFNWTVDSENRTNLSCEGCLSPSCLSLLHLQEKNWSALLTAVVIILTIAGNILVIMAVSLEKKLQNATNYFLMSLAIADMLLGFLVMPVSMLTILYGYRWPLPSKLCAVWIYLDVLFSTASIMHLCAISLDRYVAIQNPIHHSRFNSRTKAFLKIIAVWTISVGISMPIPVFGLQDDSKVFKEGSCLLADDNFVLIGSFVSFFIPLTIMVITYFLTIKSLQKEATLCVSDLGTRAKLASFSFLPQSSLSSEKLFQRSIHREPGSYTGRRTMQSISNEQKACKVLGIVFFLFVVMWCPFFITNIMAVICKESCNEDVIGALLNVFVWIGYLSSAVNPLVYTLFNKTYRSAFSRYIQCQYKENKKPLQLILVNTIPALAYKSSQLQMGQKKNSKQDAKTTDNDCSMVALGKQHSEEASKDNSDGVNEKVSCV

Serine/threonine-protein kinase 26, sequence (Q9P289 2-416 limits assumed): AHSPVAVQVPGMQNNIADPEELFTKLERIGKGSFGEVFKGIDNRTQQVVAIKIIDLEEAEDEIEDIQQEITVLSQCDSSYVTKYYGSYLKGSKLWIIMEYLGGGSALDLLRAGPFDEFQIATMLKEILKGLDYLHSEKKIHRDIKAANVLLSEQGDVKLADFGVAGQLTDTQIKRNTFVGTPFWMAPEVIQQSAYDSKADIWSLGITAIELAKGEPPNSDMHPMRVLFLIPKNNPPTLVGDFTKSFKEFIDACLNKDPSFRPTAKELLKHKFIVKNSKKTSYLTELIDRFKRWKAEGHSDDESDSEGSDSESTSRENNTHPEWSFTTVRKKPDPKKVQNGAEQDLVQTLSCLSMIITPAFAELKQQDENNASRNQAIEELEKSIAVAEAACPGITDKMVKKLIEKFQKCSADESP
Vascular endothelial growth factor receptor 2, sequence (P35968 whole entry): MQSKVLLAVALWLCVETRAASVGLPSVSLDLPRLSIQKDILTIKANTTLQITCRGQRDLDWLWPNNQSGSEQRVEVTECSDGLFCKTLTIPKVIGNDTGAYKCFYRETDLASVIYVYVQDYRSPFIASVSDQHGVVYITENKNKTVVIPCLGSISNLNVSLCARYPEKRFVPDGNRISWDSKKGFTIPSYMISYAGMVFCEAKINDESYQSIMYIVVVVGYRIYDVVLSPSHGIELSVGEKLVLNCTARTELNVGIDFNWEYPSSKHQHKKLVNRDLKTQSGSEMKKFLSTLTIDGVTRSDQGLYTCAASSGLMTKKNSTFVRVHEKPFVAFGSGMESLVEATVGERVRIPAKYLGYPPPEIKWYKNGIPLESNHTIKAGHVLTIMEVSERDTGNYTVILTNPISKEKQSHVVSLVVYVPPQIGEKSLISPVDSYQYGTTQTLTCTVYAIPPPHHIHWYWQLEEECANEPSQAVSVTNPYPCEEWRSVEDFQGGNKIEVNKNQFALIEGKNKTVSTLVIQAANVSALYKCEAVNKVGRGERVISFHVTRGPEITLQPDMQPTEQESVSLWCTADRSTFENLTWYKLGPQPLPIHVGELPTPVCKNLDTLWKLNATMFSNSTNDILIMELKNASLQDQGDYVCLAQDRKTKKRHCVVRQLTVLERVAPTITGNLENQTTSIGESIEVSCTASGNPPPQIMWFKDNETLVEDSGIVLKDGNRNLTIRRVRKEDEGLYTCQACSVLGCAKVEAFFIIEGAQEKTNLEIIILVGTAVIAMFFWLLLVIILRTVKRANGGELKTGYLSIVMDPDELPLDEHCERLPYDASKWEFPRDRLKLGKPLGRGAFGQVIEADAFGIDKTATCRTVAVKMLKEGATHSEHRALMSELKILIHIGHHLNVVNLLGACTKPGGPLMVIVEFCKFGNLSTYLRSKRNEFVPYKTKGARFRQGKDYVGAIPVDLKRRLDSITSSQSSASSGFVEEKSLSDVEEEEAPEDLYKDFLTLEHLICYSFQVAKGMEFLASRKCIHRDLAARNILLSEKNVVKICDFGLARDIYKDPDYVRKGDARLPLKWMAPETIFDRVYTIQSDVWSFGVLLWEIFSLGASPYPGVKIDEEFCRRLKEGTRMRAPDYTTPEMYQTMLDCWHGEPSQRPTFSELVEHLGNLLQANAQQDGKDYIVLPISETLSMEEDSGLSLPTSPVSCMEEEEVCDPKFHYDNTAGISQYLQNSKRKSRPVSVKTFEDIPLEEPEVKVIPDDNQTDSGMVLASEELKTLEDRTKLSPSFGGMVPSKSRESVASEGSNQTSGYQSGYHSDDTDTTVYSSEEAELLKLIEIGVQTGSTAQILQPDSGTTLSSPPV
Ribosomal protein S6 kinase alpha-5 (Homo sapiens), sequence (O75582 whole entry, looked up): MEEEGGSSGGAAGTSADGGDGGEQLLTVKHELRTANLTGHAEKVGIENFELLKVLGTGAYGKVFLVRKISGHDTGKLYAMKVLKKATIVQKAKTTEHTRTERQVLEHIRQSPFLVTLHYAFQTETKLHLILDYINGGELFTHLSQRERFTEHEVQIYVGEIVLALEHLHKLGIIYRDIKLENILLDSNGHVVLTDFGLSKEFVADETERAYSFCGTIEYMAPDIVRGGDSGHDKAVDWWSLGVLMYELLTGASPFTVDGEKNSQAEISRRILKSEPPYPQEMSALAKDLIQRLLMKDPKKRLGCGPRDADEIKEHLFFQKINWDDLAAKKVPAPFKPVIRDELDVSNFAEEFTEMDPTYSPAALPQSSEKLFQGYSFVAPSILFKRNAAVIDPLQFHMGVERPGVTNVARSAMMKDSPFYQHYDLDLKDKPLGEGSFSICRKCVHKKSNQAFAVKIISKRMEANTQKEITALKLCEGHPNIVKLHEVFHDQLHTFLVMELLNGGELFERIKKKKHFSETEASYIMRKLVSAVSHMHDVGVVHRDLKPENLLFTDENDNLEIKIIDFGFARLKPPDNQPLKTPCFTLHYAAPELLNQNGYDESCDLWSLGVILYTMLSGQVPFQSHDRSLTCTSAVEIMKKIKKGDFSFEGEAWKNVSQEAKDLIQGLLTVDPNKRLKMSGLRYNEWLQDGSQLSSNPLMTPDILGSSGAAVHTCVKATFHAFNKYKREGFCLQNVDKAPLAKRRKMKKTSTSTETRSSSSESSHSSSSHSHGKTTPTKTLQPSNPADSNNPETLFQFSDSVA
Calcium/calmodulin-dependent protein kinase type II subunit gamma (Homo sapiens), sequence (Q13555 whole entry): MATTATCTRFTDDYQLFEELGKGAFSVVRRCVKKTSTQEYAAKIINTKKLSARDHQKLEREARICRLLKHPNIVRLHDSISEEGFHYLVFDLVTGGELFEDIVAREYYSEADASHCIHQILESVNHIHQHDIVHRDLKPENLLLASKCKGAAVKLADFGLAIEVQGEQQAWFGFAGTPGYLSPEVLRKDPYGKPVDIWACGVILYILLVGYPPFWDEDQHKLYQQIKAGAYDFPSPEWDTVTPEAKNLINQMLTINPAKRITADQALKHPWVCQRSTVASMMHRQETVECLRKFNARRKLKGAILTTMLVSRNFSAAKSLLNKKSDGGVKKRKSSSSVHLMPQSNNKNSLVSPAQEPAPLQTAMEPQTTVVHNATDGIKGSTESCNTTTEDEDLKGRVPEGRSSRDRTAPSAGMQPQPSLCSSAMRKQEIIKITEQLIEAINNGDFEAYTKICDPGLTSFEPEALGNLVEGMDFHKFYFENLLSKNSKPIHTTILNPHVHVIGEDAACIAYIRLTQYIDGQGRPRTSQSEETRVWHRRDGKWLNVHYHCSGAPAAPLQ

Structure (SMILES): CN(C)C/C=C/C(=O)Nc1ccc(C(=O)N2CCCC(Nc3ncc(Cl)c(-c4c[nH]c5ccccc45)n3)C2)cc1 (stereo not given)
% of control [2]: 93%
% of control [3]: 70%

Structure (SMILES): CNC(=O)Nc1ccc(-c2nc(N3CC4CCC(C3)O4)c3cnn(C4CCC5(CC4)OCCO5)c3n2)cc1
% of inhibition [5]: 7%

Structure (SMILES): COCC(=O)NC/C=C/c1ccc2ncnc(Nc3ccc(Oc4ccc(C)nc4)c(C)c3)c2c1 [CP-724714]
% of control [6]: 90%

Structure (SMILES): Cc1cc([C@@H](C)Nc2ccccc2C(=O)O)c2nc(N3CCOCC3)cc(=O)n2c1 [AZD-6482]
% of control [7]: 100%

Other lines, results leading:

% of control [1]: 100%
Structure (SMILES): CCN(CC)CCCCNc1ncc2cc(-c3cc(OC)cc(OC)c3)c(NC(=O)NC(C)(C)C)nc2n1

dTM [4]: -0.6 K
Structure (SMILES): CN(C(=O)c1cnn2cccnc12)c1cc2c(cc1N1CCOCC1)C(=O)N(C[C@@H](F)C(C)(C)O)C2

% of control ([8]; at 1 µM): 94%
% of control ([8]; at 5 µM): 95%
Structure (SMILES): C=CC(=O)Nc1cccc(C(=O)Nc2ccc(Nc3cc(-c4[nH]c(SC)nc4C)ccn3)cc2)c1

pIC50 [9]: < 4.52
Structure (SMILES): CCC(=O)N1CC[C@H](Nc2ncnc3c2CN(c2cnc(OC)c(C(F)(F)F)c2)CC3)C1 [LENIOLISIB]
